Broadly, the IC50 is the midpoint of a concentration-inhibition curve. As a reminder, the inhibition is the drop in the measured response relative to a control, in per cent.

Experiment [1] has as its target IL-2-Inducible T-Cell Kinase (ITK) (Homo sapiens (Human), UniProt Q08881). As to the kind of experiment: ITK enzyme assay (IL-2-inducible T-cell kinase activity). The following applies: geometric mean of count n. It counts as biochemical. The method, boiled down:
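Full-length N-Flag/C-His human ITK, pre-incubated 30 min at RT with compound. Reaction in HEPES pH 7.5 buffer with MgCl2, glutathione, gelatin and Brij-35, started with BTK peptide substrate, 60 min at RT. EDTA stop, PT66/APC TR-FRET detection overnight; IC50 fitted by four-parameter logistic.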

Experiment [2] concerns activated CD4+ human T-cells (IL-2). As to the kind of experiment: IL-2 inhibition in supernatants from activated CD4+ human T-cells (cisbio HTRF). The following applies: CD3/CD28-activated CD4+ human T cells, ImmunoCult stimulation 20 to 24 hrs, geometric mean of count n. The experiment is classed as cell-based. The method, boiled down:
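Primary human CD4+ T cells activated with CD3/CD28 for 3 days and expanded to 7-9 days total, plated at 30,000 cells/well. Cells preincubated 15 min with compound, then stimulated with ImmunoCult (1:50 final) for 20-24 h at 37° C. Supernatant IL-2 measured by HTRF (665/615 nm); IC50 from four-parameter logistic fit.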
For orientation: Time-resolved FRET reads energy transfer from a long-lived donor to a nearby acceptor.

The target of experiment [3] is Tropomyosin Receptor Kinase A (TRKA), NTRK1 enzyme (Homo sapiens (Human), UniProt P04629). As to the kind of experiment: TRKA (NTRK1) ThermoFisher Z'-LYTE enzyme assay. The experiment is classed as biochemical. The following applies: test compound 1 uM, ATP 1 mM; arithmetic mean of count n. The protocol: TRKA, also known as neurotrophic tyrosine kinase receptor type 1 (NTKR1) activity was determined by measuring the effect of a test compound on the activity against the NTRK1 enzyme using the ThermoFisher Z′-LYTE Assay fluorescence-based coupled enzyme format (www.thermofisher.com/selectscreen). Test compounds were screened at a fixed concentration of 1 uM and the % inhibition was determined compared to controls at a fixed ATP concentration of 1 mM. The resulting effect value for the tested compound was compared to the assay controls to determine the % inhibition (%).
Tropomyosin Receptor Kinase A (TRKA), NTRK1 enzyme, sequence (P04629 33-796): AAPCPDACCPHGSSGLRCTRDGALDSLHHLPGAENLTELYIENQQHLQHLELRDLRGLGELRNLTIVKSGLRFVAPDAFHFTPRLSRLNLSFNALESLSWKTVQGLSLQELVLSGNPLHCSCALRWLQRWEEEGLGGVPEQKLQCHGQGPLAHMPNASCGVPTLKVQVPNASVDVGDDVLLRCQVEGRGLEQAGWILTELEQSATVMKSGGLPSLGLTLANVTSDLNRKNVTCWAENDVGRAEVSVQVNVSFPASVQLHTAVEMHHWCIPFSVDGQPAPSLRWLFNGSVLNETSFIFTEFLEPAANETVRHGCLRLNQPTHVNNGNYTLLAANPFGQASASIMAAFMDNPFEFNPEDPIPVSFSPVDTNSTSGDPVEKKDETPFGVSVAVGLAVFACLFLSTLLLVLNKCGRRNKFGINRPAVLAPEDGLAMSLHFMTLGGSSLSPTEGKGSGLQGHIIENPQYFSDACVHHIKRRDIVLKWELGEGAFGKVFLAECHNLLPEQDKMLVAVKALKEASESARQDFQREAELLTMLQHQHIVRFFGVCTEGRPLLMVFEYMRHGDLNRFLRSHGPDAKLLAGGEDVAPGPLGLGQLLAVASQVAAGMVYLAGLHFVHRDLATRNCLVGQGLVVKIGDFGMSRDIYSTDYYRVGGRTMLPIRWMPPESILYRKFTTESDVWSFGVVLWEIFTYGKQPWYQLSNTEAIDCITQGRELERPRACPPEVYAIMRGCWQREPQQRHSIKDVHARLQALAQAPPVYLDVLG

IL-2-Inducible T-Cell Kinase (ITK), sequence (Q08881 whole entry): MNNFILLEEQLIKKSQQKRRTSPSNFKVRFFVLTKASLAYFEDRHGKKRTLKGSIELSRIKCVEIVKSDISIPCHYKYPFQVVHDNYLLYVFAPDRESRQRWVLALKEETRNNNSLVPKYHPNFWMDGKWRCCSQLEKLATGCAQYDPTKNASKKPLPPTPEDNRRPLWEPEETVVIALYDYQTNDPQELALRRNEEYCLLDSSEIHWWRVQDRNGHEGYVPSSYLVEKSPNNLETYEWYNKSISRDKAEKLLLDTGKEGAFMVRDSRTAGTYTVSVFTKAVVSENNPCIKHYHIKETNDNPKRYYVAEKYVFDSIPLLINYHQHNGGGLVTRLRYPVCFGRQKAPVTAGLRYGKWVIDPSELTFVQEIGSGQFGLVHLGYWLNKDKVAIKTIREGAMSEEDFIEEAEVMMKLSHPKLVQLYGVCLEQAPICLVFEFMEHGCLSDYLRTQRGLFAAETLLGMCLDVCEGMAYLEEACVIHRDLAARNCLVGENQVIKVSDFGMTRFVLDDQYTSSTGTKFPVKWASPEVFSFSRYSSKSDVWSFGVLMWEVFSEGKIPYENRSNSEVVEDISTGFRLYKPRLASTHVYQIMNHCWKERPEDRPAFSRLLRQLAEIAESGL

In the case of `C[C@@H](C(=O)N(C)c1cnc2[nH]c(-c3n[nH]c4c3C[C@@H]3C[C@]3(C)C4)nc2c1)C1CCOCC1` [Example 1, (R)-N-Methyl-N-(2-((4aS,5aR)-5a-methyl-1,4,4a,5,5a,6-hexahydrocyclopropa[f]indazol-3-yl)-3H-imidazo[4,5-b]pyridin-6-yl)-2-(tetrahydro-2H-pyran-4-yl)propenamide], the results for the 50% inhibitory concentration (IC50) in experiment [1] and in experiment [2] (T-cell) were 9 nM and 67 nM, respectively. For the same molecule, the inhibition at 1 µM in experiment [3] was 96%.
In the same order, the values of `CN(C(=O)C(F)(F)C1CCOCC1)c1cnc2[nH]c(-c3n[nH]c4c3C[C@@H]3C[C@]3(C)C4)nc2c1` [Example 2, 2,2-Difluoro-N-methyl-N-(2-((4aS,5aR)-5a-methyl-1,4,4a,5,5a,6-hexahydrocyclopropa[f]indazol-3-yl)-3H-imidazo[4,5-b]pyridin-6-yl)-2-(tetrahydro-2H-pyran-4-yl)acetamide] are 14 nM, 92 nM and 108%.
The like results for `C[C@H](C(=O)N(C)c1cnc2[nH]c(-c3n[nH]c4c3C[C@@H]3C[C@]3(C)C4)nc2c1)C1CCOCC1` [Example 10, (S)-N-Methyl-N-(2-((4aS,5aR)-5a-methyl-1,4,4a,5,5a,6-hexahydrocyclopropa[f]indazol-3-yl)-3H-imidazo[4,5-b]pyridin-6-yl)-2-(tetrahydro-2H-pyran-4-yl)propanamide] were, in that order, 91 nM, 338 nM and 98%.
For `C[C@@H](C(=O)N(C)c1cnc2[nH]c(-c3n[nH]c4c3CCC(C)(C)C4)nc2c1)N1CCOCC1` [Example 14, (S)-N-(2-(6,6-Dimethyl-4,5,6,7-tetrahydro-1H-indazol-3-yl)-3H-imidazo[4,5-b]pyridin-6-yl)-N-methyl-2-morpholinopropanamide], 157 nM corresponded to half-maximal inhibition in experiment [2] (T-cell) (IC50). For the same molecule, the inhibition at 1 µM in experiment [3] worked out at 92%.
With `C[C@@H](C(=O)N(C)c1cc2[nH]c(-c3n[nH]c4c3C[C@@H]3C[C@]3(C)C4)nc2nc1F)N1CCOCC1` [Example 17, (S)-N-(5-Fluoro-2-((4aS,5aR)-5a-methyl-1,4,4a,5,5a,6-hexahydrocyclopropa[f]indazol-3-yl)-1H-imidazo[4,5-b]pyridin-6-yl)-N-methyl-2-morpholinopropanamide], the half-maximal inhibitory concentration (IC50) in experiment [1] is 41 nM; in experiment [2] (T-cell) it was 307 nM. For the same molecule, in experiment [3], the inhibition at 1 µM came out at 96%.
In experiment [2] (T-cell), `CCN(C(=O)[C@H](C)C1CCOCC1)c1cnc2[nH]c(-c3n[nH]c4c3CCC(C)(C)C4)nc2c1` [Example 18] came in with an IC50 of 162 nM. The inhibition at 1 µM in experiment [3] is 97%.
For `CCN(C(=O)[C@H](C)C1CCOCC1)c1cnc2[nH]c(-c3n[nH]c4c3C[C@@H]3C[C@]3(C)C4)nc2c1` [Example 19, (R)-N-Ethyl-N-(2-((4aS,5aR)-5a-methyl-1,4,4a,5,5a,6-hexahydrocyclopropa[f]indazol-3-yl)-3H-imidazo[4,5-b]pyridin-6-yl)-2-(tetrahydro-2H-pyran-4-yl)propenamide], the IC50 in experiment [1] came to 17 nM; in experiment [2] it was 153 nM. For the same molecule, the TRKA % inhibition in experiment [3] stood at 98%.
Consider `CCN(C(=O)[C@@H](C)N1CCOCC1)c1cnc2[nH]c(-c3n[nH]c4c3CCC(C)(C)C4)nc2c1` [Example 22, (R)-N-(2-(6,6-Dimethyl-4,5,6,7-tetrahydro-1H-indazol-3-yl)-3H-imidazo[4,5-b]pyridin-6-yl)-N-ethyl-2-morpholinopropanamide], for which the IC50 in experiment [1] came to 85 nM; in experiment [2] (T-cell), 471 nM. In experiment [3], the inhibition at 1 µM was found to be 94%.
In the same order, the values of `C[C@@H](C(=O)N(C)c1cnc2[nH]c(-c3n[nH]c4c3C[C@@H]3C(F)(F)[C@]3(C)C4)nc2c1)N1CCOCC1` [Example 23, (S)-N-(2-((4aS,5aR)-5,5-Difluoro-5a-methyl-1,4,4a,5,5a,6-hexahydrocyclopropa[f]indazol-3-yl)-3H-imidazo[4,5-b]pyridin-6-yl)-N-methyl-2-morpholinopropanamide] are 1330 nM, 1850 nM and 54%.
In the same order, the values of `C[C@@H](C(=O)N(C)c1cnc2[nH]c(-c3n[nH]c4c3C[C@H]3C(F)(F)[C@@]3(C)C4)nc2c1)N1CCOCC1` [Example 24, (S)-N-(2-((4aR,5aS)-5,5-Difluoro-5a-methyl-1,4,4a,5,5a,6-hexahydrocyclopropa[f]indazol-3-yl)-3H-imidazo[4,5-b]pyridin-6-yl)-N-methyl-2-morpholinopropanamide] are 3 nM, 34 nM and 95%.
Molecule `C[C@H](C(=O)N(C)c1cnc2[nH]c(-c3n[nH]c4c3C[C@@H]3C[C@]3(C)C4)nc2c1)N1CCOCC1` [Example 26, (R)-N-Methyl-N-(2-((4aS,5aR)-5a-methyl-1,4,4a,5,5a,6-hexahydrocyclopropa[f]indazol-3-yl)-3H-imidazo[4,5-b]pyridin-6-yl)-2-morpholinopropanamide] gave an IC50 in experiment [2] (T-cell) of 631 nM. For the same molecule, in experiment [3], the inhibition at 1 µM was found to be 91%.
With `C[C@@H](C(=O)N(C)c1cnc2[nH]c(-c3n[nH]c4c3C[C@@H]3C[C@]3(C)C4)nc2c1)N1CCOCC1` [Example 28, (S)-N-Methyl-N-(2-((4aS,5aR)-5a-methyl-1,4,4a,5,5a,6-hexahydrocyclopropa[f]indazol-3-yl)-3H-imidazo[4,5-b]pyridin-6-yl)-2-morpholinopropanamide], the IC50 in experiment [1] turned out to be 23 nM; in experiment [2] (T-cell), 121 nM. Further, the inhibition at 1 µM in experiment [3] is 91%.
The like results for `C[C@@H](C(=O)N(C)c1cnc2[nH]c(-c3n[nH]c4c3C[C@H]3C[C@@]3(C)C4)nc2c1)N1CCOCC1` [Example 29, (2S)-N-Methyl-N-(2-(5a-methyl-1,4,4a,5,5a,6-hexahydrocyclopropa[f]indazol-3-yl)-3H-imidazo[4,5-b]pyridin-6-yl)-2-morpholinopropanamide] were, in that order, 2850 nM, 2530 nM and 69%.
Regarding `CCN(C(=O)[C@H](C)N1CCOCC1)c1cnc2[nH]c(-c3n[nH]c4c3C[C@@H]3C(F)(F)[C@]3(C)C4)nc2c1` [Example 30, (S)-N-(2-((4aS,5aR)-5,5-Difluoro-5a-methyl-1,4,4a,5,5a,6-hexahydrocyclopropa[f]indazol-3-yl)-3H-imidazo[4,5-b]pyridin-6-yl)-N-ethyl-2-morpholinopropanamide], the IC50 in experiment [1] stood at 8 nM; in experiment [2] (T-cell) it was 79 nM. Also, the inhibition at 1 µM in experiment [3] was found to be 97%.
In the same order, the values of `C[C@@H](C(=O)N(CCO)c1cnc2[nH]c(-c3n[nH]c4c3C[C@@H]3C[C@]3(C)C4)nc2c1)C1CCOCC1` [Example 31, (R)-N-(2-Hydroxyethyl)-N-(2-((4aS,5aR)-5a-methyl-1,4,4a,5,5a,6-hexahydrocyclopropa[f]indazol-3-yl)-3H-imidazo[4,5-b]pyridin-6-yl)-2-(tetrahydro-2H-pyran-4-yl)propenamide] are 25 nM, 415 nM and 95%.
In the same order, the values of `C[C@@H](C(=O)N(C)c1cnc2[nH]c(-c3n[nH]c4c3CCC(C)(C)C4)nc2c1)C1CCOCC1` [Example 32, (R)-N-(2-(6,6-Dimethyl-4,5,6,7-tetrahydro-1H-indazol-3-yl)-3H-imidazo[4,5-b]pyridin-6-yl)-N-methyl-2-(tetrahydro-2H-pyran-4-yl)propenamide] are 17 nM, 167 nM and 94%.
The like results for `COc1nc2[nH]c(-c3n[nH]c4c3C[C@@H]3C[C@]3(C)C4)nc2cc1N(C)C(=O)[C@H](C)N1CCOCC1` [Example 36, (S)-N-(5-Methoxy-2-((4aS,5aR)-5a-methyl-1,4,4a,5,5a,6-hexahydrocyclopropa[f]indazol-3-yl)-3H-imidazo[4,5-b]pyridin-6-yl)-N-methyl-2-morpholinopropanamide] were, in that order, 47 nM, 172 nM and 95%.
For the molecule `COCCOc1nc2[nH]c(-c3n[nH]c4c3C[C@@H]3C[C@]3(C)C4)nc2cc1N(C)C(=O)[C@H](C)N1CCOCC1` [Example 40, (S)-N-(5-(2-Methoxyethoxy)-2-((4aS,5aR)-5a-methyl-1,4,4a,5,5a,6-hexahydrocyclopropa[f]indazol-3-yl)-3H-imidazo[4,5-b]pyridin-6-yl)-N-methyl-2-morpholinopropanamide], the IC50 in experiment [1] was found to be 28 nM; in experiment [2] (T-cell) it was 182 nM. For the same molecule, the inhibition at 1 µM in experiment [3] stood at 97%.
Regarding `CN(C(=O)CC1CCCCC1)c1cnc2nc(-c3n[nH]c4c3C[C@@H]3C[C@]3(C)C4)[nH]c2c1` [Example 47, 2-Cyclohexyl-N-methyl-N-(2-((4aS,5aR)-5a-methyl-1,4,4a,5,5a,6-hexahydrocyclopropa[f]indazol-3-yl)-1H-imidazo[4,5-b]pyridin-6-yl)acetamide], the IC50 is 44 nM in experiment [1] and 189 nM in experiment [2] (T-cell). Besides, the inhibition at 1 µM in experiment [3] worked out at 95%.

(Values after patent US20240124439A1, “Pyrido[2,3-D]Imidazole Derivatives and Their Use As Inhibitors of ITK for the Treatment of Skin Disease” (Pfizer Inc., priority 2020, published 2024).)
